Data from PubChem BioAssay AID248 (DTP/NCI, 2004).
Several values for one entry are separate records, joined by “and”; a condition that tells them apart may be missing. Equal entries are not always repeated. Inconclusive results and toxic doses are left out. Cut-off read from the data, not from the text of the source: active = T/C of 150% or more; inactive = T/C below 125%.

Test system: L1210 leukemia ip in BDF1 mice, survival T/C
Experiment: NCI In Vivo Anticancer Drug Screen. Data for tumor model L1210 Leukemia (intraperitoneal) in B6D2F1 (BDF1) mice
Conditions: endpoint: mean survival time, higher = longer survival
Procedure, shortened: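 Each compound was tested against a transplantable tumor grown in mice. The endpoint was survival, with treated animals benchmarked against vehicle controls as a simple ratio.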

[1] = dose: 100.0 mg/kg/injection, schedule: Q04DX003 (ip), vehicle: saline sonified
[2] = dose: 200.0 mg/kg/injection, schedule: Q04DX003 (ip), vehicle: saline sonified
[3] = dose: 400.0 mg/kg/injection, schedule: Q04DX003 (ip), vehicle: saline sonified
[4] = dose: 100.0 mg/kg/injection, schedule: Q01DX009 (ip), vehicle: Klucel (hydroxypropylcellulose) (HPC)
[5] = dose: 100.0 mg/kg/injection, schedule: Q04DX003 (ip), vehicle: Klucel (hydroxypropylcellulose) (HPC)
[6] = dose: 200.0 mg/kg/injection, schedule: Q01DX009 (ip), vehicle: Klucel (hydroxypropylcellulose) (HPC)
[7] = dose: 200.0 mg/kg/injection, schedule: Q04DX003 (ip), vehicle: Klucel (hydroxypropylcellulose) (HPC)
[8] = dose: 400.0 mg/kg/injection, schedule: Q01DX009 (ip), vehicle: Klucel (hydroxypropylcellulose) (HPC)
[9] = dose: 400.0 mg/kg/injection, schedule: Q04DX003 (ip), vehicle: Klucel (hydroxypropylcellulose) (HPC)
[10] = dose: 50.0 mg/kg/injection, schedule: Q01DX001 (ip), vehicle: saline
[11] = dose: 100.0 mg/kg/injection, schedule: Q01DX001 (ip), vehicle: saline
[12] = dose: 200.0 mg/kg/injection, schedule: Q01DX001 (ip), vehicle: saline
[13] = dose: 100.0 mg/kg/injection, schedule: Q01DX009 (ip), vehicle: saline with Tween-80
[14] = dose: 200.0 mg/kg/injection, schedule: Q01DX009 (ip), vehicle: saline with Tween-80
[15] = dose: 400.0 mg/kg/injection, schedule: Q01DX009 (ip), vehicle: saline with Tween-80
[16] = dose: 100.0 mg/kg/injection, schedule: Q04DX003 (ip), vehicle: saline
[17] = dose: 200.0 mg/kg/injection, schedule: Q04DX003 (ip), vehicle: saline
[18] = dose: 400.0 mg/kg/injection, schedule: Q01DX001 (ip), vehicle: saline

Measured: T/C

CCCCCC[P+](c1ccccc1)(c1ccccc1)c1ccccc1
inactive: dose: 6.25 mg/kg/injection, schedule: Q01DX009 (ip), vehicle: saline 99 % of control | dose: 6.25 mg/kg/injection, schedule: Q04DX003 (ip), vehicle: saline 101 % of control | dose: 12.5 mg/kg/injection, schedule: Q01DX009 (ip), vehicle: saline 107 % of control | dose: 12.5 mg/kg/injection, schedule: Q04DX003 (ip), vehicle: saline 100 % of control | dose: 25.0 mg/kg/injection, schedule: Q01DX009 (ip), vehicle: saline 98 % of control | dose: 25.0 mg/kg/injection, schedule: Q04DX003 (ip), vehicle: saline 103 % of control

CC(C)(C#N)N=NC(C)(C)C#N
inactive: dose: 25.0 mg/kg/injection, schedule: Q01DX009 (ip), vehicle: alcohol 96 % of control | dose: 50.0 mg/kg/injection, schedule: Q01DX009 (ip), vehicle: alcohol 96 % of control | dose: 50.0 mg/kg/injection, schedule: Q04DX003 (ip), vehicle: alcohol 98 % of control | dose: 100.0 mg/kg/injection, schedule: Q04DX003 (ip), vehicle: alcohol 95 % of control

Cn1c(=O)c2c(nc(OCC3CCCCC3)n2C)n(C)c1=O
inactive: dose: 50.0 mg/kg/injection, schedule: Q01DX001 (ip), vehicle: other 94 % of control | dose: 100.0 mg/kg/injection, schedule: Q01DX001 (ip), vehicle: other 100 % of control | dose: 200.0 mg/kg/injection, schedule: Q01DX001 (ip), vehicle: other 94 % of control | dose: 400.0 mg/kg/injection, schedule: Q01DX001 (ip), vehicle: other 92 % of control

CC1=NCCN1CCNC(=O)c1ccc(C(=O)NCCN2CCN=C2C)cc1
inactive: dose: 5.0 mg/kg/injection, schedule: Q01DX001 (ip), vehicle: saline 103 % of control | dose: 10.0 mg/kg/injection, schedule: Q01DX001 (ip), vehicle: saline 101 % of control

CN(C)CCO/C(CN(C)C)=C(\C#N)c1ccccc1
inactive: dose: 15.0 mg/kg/injection, schedule: Q01DX001 (ip), vehicle: carboxymethylcellulose (CMC) 92 % of control | dose: 30.0 mg/kg/injection, schedule: Q01DX001 (ip), vehicle: carboxymethylcellulose (CMC) 95 % of control

O=C1OCc2cc[n+]([O-])cc21
inactive: dose: 100.0 mg/kg/injection, schedule: Q01DX001 (ip), vehicle: carboxymethylcellulose (CMC) 97 % of control | dose: 200.0 mg/kg/injection, schedule: Q01DX001 (ip), vehicle: carboxymethylcellulose (CMC) 96 % of control | dose: 400.0 mg/kg/injection, schedule: Q01DX001 (ip), vehicle: carboxymethylcellulose (CMC) 107 % of control

c1ccc(Cc2ccccn2)nc1
inactive: [1] 110 % of control | [2] 104 % of control | [3] 104 % of control

CCCC[S][Pb]([CH2]C)([CH2]C)[CH2]C
inactive: dose: 1.56 mg/kg/injection, schedule: Q01DX009 (sc), vehicle: olive oil, sesame oil, peanut oil 103 % of control | dose: 3.12 mg/kg/injection, schedule: Q01DX009 (sc), vehicle: olive oil, sesame oil, peanut oil 99 % of control | dose: 6.25 mg/kg/injection, schedule: Q01DX009 (sc), vehicle: olive oil, sesame oil, peanut oil 96 % of control and 100 % of control | dose: 12.5 mg/kg/injection, schedule: Q04DX002 (ip), vehicle: saline with Tween-80 111 % of control | dose: 25.0 mg/kg/injection, schedule: Q04DX002 (ip), vehicle: saline with Tween-80 96 % of control

CC(C)CC(N)C(=O)NNc1ccccc1 (stereo not drawn)
inactive: dose: 75.0 mg/kg/injection, schedule: Q01DX001 (ip), vehicle: saline 101 % of control | dose: 150.0 mg/kg/injection, schedule: Q01DX001 (ip), vehicle: saline 103 % of control | dose: 300.0 mg/kg/injection, schedule: Q01DX001 (ip), vehicle: saline 108 % of control

CCOC(=O)C(C(=O)OCC)C1C=CCC1 (stereo not drawn)
inactive: [4] 104 % of control | [5] 98 % of control | [6] 96 % of control | [7] 97 % of control | [8] 91 % of control | [9] 108 % of control

CCOC(=O)Nc1ccc(NC(=O)OCC)cc1
inactive: [4] 89 % of control | [5] 96 % of control | [6] 89 % of control | [7] 93 % of control | [9] 111 % of control

CNc1cc(Cl)ncn1
inactive: [10] 90 % of control | [11] 93 % of control | [12] 95 % of control

CCCCCCCCCCCC[Si](c1ccccc1)(c1ccccc1)c1ccccc1
inactive: dose: 100.0 mg/kg/injection, schedule: Q04DX003 (ip), vehicle: other 94 % of control | dose: 200.0 mg/kg/injection, schedule: Q04DX003 (ip), vehicle: other 96 % of control | dose: 400.0 mg/kg/injection, schedule: Q04DX003 (ip), vehicle: other 90 % of control

CCOc1ccc(NC(=O)c2cccc(C(=O)Nc3ccc(OCC)cc3)c2)cc1
inactive: [4] 104 % of control | [5] 91 % of control | [6] 101 % of control | [7] 98 % of control | [8] 95 % of control | [9] 93 % of control

C=C1OC(=O)OC1(C)CC(OC)OC (stereo not drawn)
inactive: [13] 101 % of control | dose: 100.0 mg/kg/injection, schedule: Q04DX003 (ip), vehicle: saline with Tween-80 94 % of control | [14] 95 % of control | dose: 200.0 mg/kg/injection, schedule: Q04DX003 (ip), vehicle: saline with Tween-80 92 % of control | [15] 98 % of control | dose: 400.0 mg/kg/injection, schedule: Q04DX003 (ip), vehicle: saline with Tween-80 92 % of control

O=C(CNC(=O)Nc1ccc(Cl)c(Cl)c1)N/N=C/c1ccc(F)cc1
inactive: [13] 98 % of control | [14] 96 % of control | [15] 98 % of control

O=C(O)Cc1ccccc1Cl
inactive: dose: 100.0 mg/kg/injection, schedule: Q01DX009 (ip), vehicle: gum acacia 100 % of control | dose: 200.0 mg/kg/injection, schedule: Q01DX009 (ip), vehicle: gum acacia 96 % of control

O=C(c1cccs1)C1Cc2ccccc2C1=O (stereo not drawn)
inactive: dose: 100.0 mg/kg/injection, schedule: Q01DX009 (ip), vehicle: saline sonified 98 % of control | [1] 94 % of control | dose: 200.0 mg/kg/injection, schedule: Q01DX009 (ip), vehicle: saline sonified 95 % of control | [2] 92 % of control | dose: 400.0 mg/kg/injection, schedule: Q01DX009 (ip), vehicle: saline sonified 101 % of control | [3] 94 % of control

CC(C)C1(O)C=CC(C)(O)CC1 (stereo not drawn)
inactive: [16] 102 % of control | [17] 102 % of control | dose: 400.0 mg/kg/injection, schedule: Q04DX003 (ip), vehicle: saline 107 % of control

O=S1(=O)CC23CC=CCC2(CC=CC3)C1 (stereo not drawn)
inactive: dose: 50.0 mg/kg/injection, schedule: Q01DX009 (ip), vehicle: Klucel (hydroxypropylcellulose) (HPC) 100 % of control | [4] 97 % of control | [6] 96 % of control

NNC(=O)CC(=O)NN
inactive: [10] 97 % of control | [11] 106 % of control | [16] 110 % of control | [12] 97 % of control | [17] 111 % of control | [18] 97 % of control

CC(C)(C)C1CCC(OS(C)(=O)=O)C(OS(C)(=O)=O)C1 (stereo not drawn)
inactive: dose: 12.5 mg/kg/injection, schedule: Q04DX003 (ip), vehicle: Klucel (hydroxypropylcellulose) (HPC) 102 % of control | dose: 25.0 mg/kg/injection, schedule: Q04DX003 (ip), vehicle: Klucel (hydroxypropylcellulose) (HPC) 100 % of control

Cc1ccc(Br)cc1C(c1cc(Br)ccc1C)C(O)C(O)C(O)C(O)CO (stereo not drawn)
inactive: [10] 106 % of control | [11] 106 % of control | [12] 110 % of control | [18] 98 % of control

CC(=O)OC1COC(n2cnc3c(N)ncnc32)C(OC(C)=O)C1OC(C)=O (stereo not drawn)
inactive: [10] 100 % of control | [11] 97 % of control | [12] 100 % of control
